Measurements reported in patent publication US20240368096A1 (Enanta Pharmaceuticals, Inc., priority 2022, published 2024).

Columns and labels:
HBV = HBV infection in HepG2-NTCP cells (HBeAg AlphaLISA in supernatants); format: cell-based; settings: Hepatitis B virus, 192 h; HBV infection of HepG2-NTCP cells; HBeAg in supernatants at day 8 post infection; read-out: Cellular EC50
How it was run: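 Readout was day-8 supernatant HBeAg by AlphaLISA, with EC50 set against DMSO controls and binned A<0.1 μM, B 0.1-1 μM, C>1 μM. Compounds were added 2 h before HBV (2000 GE/cell, 4% PEG, 0.5% DMSO) to HepG2-NTCP A3 cells; from day 1 medium held 2.5% DMSO.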

HDV [1] = test: HDV infection in HepG2-NTCP cells and RNA quantification (RT-qPCR); format: cell-based; settings: 288 h; HDV infection of HepG2-NTCP cells; viral RNA by RT-qPCR at day 12 post infection; read-out: Cellular EC50
Procedure: HDV virus collected from the supernatants of HuH7-END cells was purified in the presence of 6% polyethylene glycol (PEG). Viral titer was then quantified by RT-qPCR using HDV specific primers against a reference standard. For HDV infection, HepG2-NTCP cells were seeded in 96-well plates at 60,000 cells/well. On the day of infection, compounds were 4-fold serially diluted in DMSO and pre-incubated with HepG2-NTCP cells for two hours before infecting with 800 GE/cell of HDV in 4% PEG. On day one post infection, HDV-containing media was aspirated, cells were washed once with PBS and then maintained in 2.5% DMSO containing media for the remainder of the assay. Viral RNA was isolated using RNeasy kits (Qiagen) at day 12 post infection and reverse transcribed into cDNA using High-Capacity RNA-to-cDNA Kit (Thermo Fisher). Relative HDV gene expression was quantified by RT-qPCR after normalization to expression of a housekeeping gene. Irrespective of readout, compound concentrations that reduce viral RNA by 50% relative to DMSO controls (EC50) are reported. EC50 ranges are as follows: A<0.1 μM; B 0.1-1 μM; C>1 μM.

HDV [2] = test: HDV infection in primary human hepatocytes (PHHs) and RNA quantification (RT-qPCR); format: cell-based; settings: Hepatocyte, 192 h, HDV infection of primary human hepatocytes, viral RNA at day 8 post infection
From the text: Primary human hepatocytes (Thermo Fisher Scientific) were thawed in Williams E Medium with CM3000 supplement pack (Thermo Fisher Scientific) and seeded at 70,000 cells/well on collagen-coated 96-well plate. Six hours post-seeding, cell medium was changed to Williams E Medium with CM4000 cell maintenance supplement pack for further culture (Thermo Fisher Scientific). HDV virus collected from the supernatants of HuH7-END cells was purified in the presence of 6% polyethylene glycol (PEG). Viral titer was then quantified by RT-qPCR using HDV specific primers against a reference standard. On the day of infection, compounds were 4-fold serially diluted in DMSO and pre-incubated with PHHs for two hours before infecting with 100 GE/cell of HDV in 4% PEG. On day one post infection, HDV-containing media was aspirated, cells were washed once with PBS and then maintained in 2.5% DMSO containing media for the remainder of the assay. Viral RNA was isolated using RNeasy kits at day 8 post infection and reverse transcribed into cDNA using High-Capacity RNA-to-cDNA Kit. Relative HDV gene expression was quantified by RT-qPCR after normalization to expression of a housekeeping gene. Irrespective of readout, compound concentrations that reduce viral RNA by 50% relative to DMSO controls (EC50) are reported. EC50 ranges are as follows: A<0.1 μM; B 0.1-1 μM; C>1 μM.

NTCP = target: T1, NTCP (Homo sapiens, UniProt Q14973); test: HepG2-NTCP preS1 binding competition assay (FITC-labeled myristoylated preS1 peptide); settings: HepG2-NTCP cells; competition with FITC-labeled preS1 peptide
T1 construct: expressed in transfected cells; host or cells: HepG2-NTCP (clone A3, kept under puromycin)
T1 sequence (Q14973 1-349): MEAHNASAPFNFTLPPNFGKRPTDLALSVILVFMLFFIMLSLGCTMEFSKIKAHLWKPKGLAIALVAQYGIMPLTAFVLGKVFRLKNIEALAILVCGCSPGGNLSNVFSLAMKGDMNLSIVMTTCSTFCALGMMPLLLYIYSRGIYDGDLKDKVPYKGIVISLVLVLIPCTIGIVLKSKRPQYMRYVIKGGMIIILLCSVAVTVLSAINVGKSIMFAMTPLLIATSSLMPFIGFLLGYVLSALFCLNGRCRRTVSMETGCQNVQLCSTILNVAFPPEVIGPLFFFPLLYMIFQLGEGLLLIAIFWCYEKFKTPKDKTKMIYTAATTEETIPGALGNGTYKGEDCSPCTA
Procedure: HepG2-NTCP preS1 Binding Competition Assay
Myristoylated preS1 peptide (2-48 aa) conjugated to a C-terminal FITC tag was synthesized to evaluate preS1 binding to NTCP-expressing cells. HepG2-NTCP cells seeded in 384-wells were pre-treated with compounds for 2 hours prior to the addition of FITC-labeled preS1 peptide. After co-incubation for 30 minutes, unbound FITC-preS1 peptide was washed twice with PBS, and the fluorescence of preS1-FITC bound to cell surface was detected by Envision plate reader. EC50 ranges are as follows: A<0.1 μM; B 0.1-1 μM; C>1 μM.

[3] = Donor 1, read-out: Cellular EC50 (μM) Donor 1
[4] = Donor 2, read-out: Cellular EC50 (μM) Donor 2

EC50 (HBV) [nM]	EC50 (HDV [1]) [nM]	EC50 (NTCP) [nM]	SMILES	EC50 (HDV [2]; [3]) [µM]	EC50 (HDV [2]; [4]) [µM]
< 100	< 100		CN1[C@H](C2CCCCC2)CN(c2ccccc2)c2cc(Cl)c(-c3ccc(F)c(C(=O)O)c3)cc2S1(=O)=O [Example 25, (R)-5-(7-chloro-3-cyclohexyl-2-methyl-1,1-dioxido-5-phenyl-2,3,4,5-tetrahydrobenzo[f][1,2,5]thiadiazepin-8-yl)-2-fluorobenzoic acid]	< 0.1	0.1 to 1
< 100	< 100	< 100	CN1[C@H](C2CCCCC2)CN(c2ccccc2)c2cc(Cl)c(-c3cc(F)c(C(=O)O)s3)cc2S1(=O)=O [Example 116, (R)-5-(7-chloro-3-cyclohexyl-2-methyl-1,1-dioxido-5-phenyl-2,3,4,5-tetrahydrobenzo[f][1,2,5]thiadiazepin-8-yl)-3-fluorothiophene-2-carboxylic acid]	< 0.1	
< 100	< 100		Cc1cc(-c2cc3c(cc2Cl)N(c2ccccc2)C[C@@H](C2CCCCC2)N(C)S3(=O)=O)sc1C(=O)O [Example 126, (R)-5-(7-chloro-3-cyclohexyl-2-methyl-1,1-dioxido-5-phenyl-2,3,4,5-tetrahydrobenzo[f][1,2,5]thiadiazepin-8-yl)-3-methylthiophene-2-carboxylic acid]		
< 100		< 100	Cc1cc(-c2cc3c(cc2F)N(c2ccccc2)C[C@@H](C2CCCCC2)N(C)S3(=O)=O)sc1C(=O)O [Example 127, (R)-5-(3-cyclohexyl-7-fluoro-2-methyl-1,1-dioxido-5-phenyl-2,3,4,5-tetrahydrobenzo[f][1,2,5]thiadiazepin-8-yl)-3-methylthiophene-2-carboxylic acid]		< 0.1
< 100			CN1[C@H](C2CCCCC2)CN(c2ccccc2)c2cc(F)c(-c3cc(F)c(C(=O)O)s3)cc2S1(=O)=O [Example 128, (R)-5-(3-cyclohexyl-7-fluoro-2-methyl-1,1-dioxido-5-phenyl-2,3,4,5-tetrahydrobenzo[f][1,2,5]thiadiazepin-8-yl)-3-fluorothiophene-2-carboxylic acid]		< 0.1
< 100			CN1[C@H](C2CCCCC2)CN(c2ccccc2)c2cc(OCc3ccsc3)c(-c3ccc(F)c(C(=O)O)c3)cc2S1(=O)=O [Example 336]	< 0.1	
< 100			CCCCCCCOc1cc2c(cc1-c1ccc(F)c(C(=O)O)c1)S(=O)(=O)N(C)[C@H](C1CCCCC1)CN2c1ccccc1 [Example 353]	< 0.1	
< 100			CN1[C@H](C2CCCCC2)CN(c2ccccc2)c2cc(OC3CC3)c(-c3ccc(F)c(C(=O)O)c3)cc2S1(=O)=O [Example 372]	< 0.1	
< 100			CN1[C@H](C2CCCCC2)CN(c2ccccc2)c2cc(OC3CCC3)c(-c3ccc(F)c(C(=O)O)c3)cc2S1(=O)=O [Example 376]	< 0.1	
< 100		< 100	Cc1cc(-c2cc3c(cc2OCC(F)(F)F)N(c2ccccc2)C[C@@H](C2CCCCC2)N(C)S3(=O)=O)sc1C(=O)O [Example 512, (R)-5-(3-cyclohexyl-2-methyl-1,1-dioxido-5-phenyl-7-(2,2,2-trifluoroethoxy)-2,3,4,5-tetrahydrobenzo[f][1,2,5]thiadiazepin-8-yl)-3-methylthiophene-2-carboxylic acid]		
< 100			Cc1cc(-c2cc3c(cc2OCc2ccsc2)N(c2ccccc2)C[C@@H](C2CCCCC2)N(C)S3(=O)=O)sc1C(=O)O [Example 514]	< 0.1	< 0.1
100 to 1000		< 100	CCCCC1CN(c2ccccc2)c2cc(CN3CCCC3)c(-c3ccc(F)c(C(=O)O)c3)cc2S(=O)(=O)N1C (stereo not drawn) [Example 563, 5-(3-butyl-2-methyl-1,1-dioxido-5-phenyl-7-(pyrrolidin-1-ylmethyl)-2,3,4,5-tetrahydrobenzo[f][1,2,5]thiadiazepin-8-yl)-2-fluorobenzoic acid]		
< 100		< 100	CN1[C@H](C2CCCCC2)CN(c2ccccc2)c2cc(C34CC(C(F)(F)F)(C3)C4)c(-c3ccc(F)c(C(=O)O)c3)cc2S1(=O)=O [Example 595]		
100 to 1000		100 to 1000	CN1[C@H](C2CCCCC2)CN(c2ccccc2)c2cc(Cl)c([C@H]3C[C@H](C(=O)O)C3)cc2S1(=O)=O [Example 608, (1R,3r)-3-((R)-7-chloro-3-cyclohexyl-2-methyl-1,1-dioxido-5-phenyl-2,3,4,5-tetrahydrobenzo[f][1,2,5]thiadiazepin-8-yl)cyclobutane-1-carboxylic acid]		
< 100		100 to 1000	CN1[C@H](C2CCCCC2)CN(c2ccccc2)c2cc(Cl)c(N3C[C@H](C(=O)O)[C@@H](c4ccccc4)C3)cc2S1(=O)=O [Example 612]		
< 100		100 to 1000	CN1[C@H](C2CCCCC2)CN(c2ccccc2)c2cc(Cl)c(N3C[C@@H](C(=O)O)[C@H](c4ccccc4)C3)cc2S1(=O)=O [Example 613]		
< 100		< 100	CN1[C@H](C2CCCCC2)CN(c2ccccc2)c2cc(Cl)c(N3C[C@H](C(=O)O)[C@@H](C(F)(F)F)C3)cc2S1(=O)=O [Example 614]		
100 to 1000		< 100	CN1[C@H](C2CCCCC2)CN(c2ccccc2)c2cc(Cl)c(N3C[C@H]4C[C@@]4(C(=O)O)C3)cc2S1(=O)=O [Example 615]		
